In article PMC10439028, “SGLT5 is the renal transporter for 1,5-anhydroglucitol, a major player in two rare forms of neutropenia” (Cellular and Molecular Life Sciences: CMLS, 2023):
Where a chain is given by its changes, count along the chain named.

Tests used:
[1] = biological target: T1, hSGLT5 Asn96Ile (Homo sapiens, UniProt A0PJK1, N96I); assay: Inhibition of 10 µM 1,5-AG transport by SGLT5 variant Asn96Ile; type: cell-based; settings: mutation Asn96Ile versus SGLT5, Fig. 5D
T1 construct: pUB83-hSGLT5-iso2 as well as the various SGLT5 mutants obtained were used to transduce HEK293T cells; expressed in transfected cells; host or cells: HEK293T, lentiviral transduction (pUB83)
T1 sequence (A0PJK1 1-596 N96I): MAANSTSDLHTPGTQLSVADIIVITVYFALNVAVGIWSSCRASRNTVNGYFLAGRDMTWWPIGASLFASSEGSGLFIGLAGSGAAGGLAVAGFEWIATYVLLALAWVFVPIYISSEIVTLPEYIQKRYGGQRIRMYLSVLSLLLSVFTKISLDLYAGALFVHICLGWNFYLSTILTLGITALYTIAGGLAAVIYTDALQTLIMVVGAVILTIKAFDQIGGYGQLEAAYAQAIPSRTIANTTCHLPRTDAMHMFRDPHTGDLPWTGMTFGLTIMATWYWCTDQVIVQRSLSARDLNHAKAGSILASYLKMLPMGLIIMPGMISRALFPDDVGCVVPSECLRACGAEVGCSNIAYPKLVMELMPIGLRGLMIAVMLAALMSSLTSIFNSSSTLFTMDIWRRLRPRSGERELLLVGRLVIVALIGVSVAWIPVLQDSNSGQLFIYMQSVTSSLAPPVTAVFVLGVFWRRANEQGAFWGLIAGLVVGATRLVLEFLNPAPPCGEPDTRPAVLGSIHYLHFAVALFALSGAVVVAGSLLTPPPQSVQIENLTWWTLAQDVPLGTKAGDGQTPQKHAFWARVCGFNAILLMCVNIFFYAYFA
Method: The transport experiments to study the specificity of SGLT4 or SGLT5, were performed in the presence of 10 µM U-[^14C + ^12C]-mannose (for SGLT4) or 2-[^3H + ^1H]-1,5-AG (for SGLT5) and increasing concentrations of various sugars tested. The transport experiments to study the inhibition of empagliflozin, dapagliflozin or remogliflozin, on the transport of 1,5-AG by SGLT5 or its variants were performed in the presence of 10 µM 2-[^3H + ^1H]-1,5-AG and increasing concentrations of the various gliflozins tested.
SGLT5 mutants were created using the quick-change site directed mutagenesis method that enables effective mutagenesis without subcloning of the amplified PCR products. Complementary primer pairs carrying the desired replacements (Supplementary Table 3) were designed using an online tool (https://www.agilent.com/store/primerDesignProgram.jsp). The PCR protocol was carried out following the manufacturer instructions regarding the KOD HOT Start polymerase kit (TOYOBO™, Novagen). The amplified DNA was cleaned-up from the reactions constituents using the GeneJET PCR purification Kit (Thermo Scientific™) and the size of the DNA fragment were verified by DNA agarose-gel electrophoresis. […]

[2] = biological target: T2, hSGLT5 Ala522Val (Homo sapiens, UniProt A0PJK1, A522V); assay: 1,5-AG uptake in HEK293T cells overexpressing SGLT5 variant Ala522Val; type: cell-based
T2 construct: pUB83-hSGLT5-iso2 as well as the various SGLT5 mutants obtained were used to transduce HEK293T cells; expressed in transfected cells; host or cells: HEK293T, lentiviral transduction (pUB83)
T2 sequence (A0PJK1 1-596 A522V): T1 sequence (A0PJK1 1-596 N96I) with I96N, A522V
Method: For a typical transporter experiment we proceeded as follows. […] To minimize cell loss during the various washing steps in the radioactive uptake experiments, the wells where the cells were seeded were previously coated with poly- D-lysine, which improved their adhesion to the plastic surface of the wells. For this, each well of the 24-well plates was treated with 200 µl of a 0.01% poly-L-lysine solution for 10 min, washed 3 times with 1 ml of sterilized water and left to dry for 2 h. Only then could the 24-well plates be seeded with the appropriate cell lines and cultured overnight at 37 °C in 5% CO2.
On day two, the radioactive uptake assay could be performed. The cell culture media was removed by aspiration and cells were incubated for 20 min at 37 °C and 5% CO2 with a basal medium (10 mM HEPES, pH 7.4, 1 mM CaCl2, 1 mM MgCl2, 2 mM KCl) containing 140 mM choline chloride to deplete intracellular Na^2+ ions. […]
Once the uptake medium was added to the cells, the plates were incubated at 37 °C in 5% CO2 during the required time. […] In each experiment, the transport activities were calculated after subtracting a “blank” value, corresponding to the radioactivity in the appropriate control cells (HEK293T cells that were stably or transiently transfected with one of the parent plasmids pEF6/MycHisA, pEF6HisB, pUB82 or pUB83 with no inserted cDNA) that were analyzed in parallel. […]

For `OC[C@H]1O[C@@H](c2ccc(Cl)c(Cc3ccc(O[C@H]4CCOC4)cc3)c2)[C@H](O)[C@@H](O)[C@@H]1O` [empagliflozin], which “effect of mutation on inhibition exerted by empagliflozin” value [1] is on record?
The value was “considerably decreased (by more than tenfold)”.

Which Vmax ([2]; variant Ala522Val) does the source give for `OC[C@H]1OC[C@H](O)[C@@H](O)[C@@H]1O` [1,5-AG, 1,5-anhydroglucitol] here?
The Vmax was 18.3 ± 0.5 pmol/min/10^5cells.

And the “effect of mutation on ability of SGLT5 to transport 1,5-AG” value ([2]; variant Ala522Val (control))?
Its value is “no effect”.
